Results as given in patent US20170202939A1, “PERSONALIZED CANCER VACCINES AND METHODS THEREFOR” (Washington University, priority 2014, published 2017).
No end group written: not given here.

System: neoantigen-specific CD8+ T cells
Assay: immune monitoring of vaccinated patients, HLA/peptide dextramer (tetramer) assay on cultured PBMC
Assay type: in vivo, human
Conditions: for Immunogenicity: AAS-directed CD8+ T cell response in vaccinated patient; for frequency of neoantigen-specific CD8+ T cells / T cell response upon vaccination: post-vaccine PBMC, dextramer assay; for frequency of neoantigen-specific CD8+ T cells: upon culture, at the peak of response; for Spontaneous Immunity: pre-vaccine (naturally-occurring) CD8+ T cell response, immune monitoring assay; for pre-existing (naturally occurring) T cell immunity: pre-vaccine PBMC samples after in vitro stimulation
Experimental: Immunologic monitoring (Examples 1-10). Immunologic analysis to evaluate the kinetics and magnitude of T cell response to gp100 peptides was performed using PBMCs collected weekly (prior to vaccination and until week 21. Fresh PBMCs obtained by Ficoll-Hypaque gradient centrifugation were adjusted to 2×10^6 cells/ml in Stemline media (Sigma-Aldrich) containing 5% human AB-serum, and dispersed at 1 ml/well in 24-well plates. Cultures were set up for the gp100 peptides and the CMV pp65 peptide (positive peptide control). Cultures were pulsed with 40 μg/ml peptide and 50 U/ml IL-2 fed starting at 48 hours and every other day thereafter. On day 12 (peak of response; the inventors' unpublished observation), cultures were harvested, counted, and stained for flow cytometry analysis. To assess the antigen-specific T cell frequency, cells were stained with HLAA*0201/peptide tetramers (Beckman Coulter) for 30 minutes at room temperature, followed by addition of FITC-conjugated CD4, CD14, CD19, and CD56 and allophycocyanin-conjugated CD8 (Invitrogen) for 15 minutes at 4° C. Cells were washed and resuspended in FACS buffer, and 7AAD was added 5 minutes before analysis. Control CMV pp65-specific CD8+ T cells were detected in all CMV-seropositive patients before and after immunization. A negative HLA-A*0201/HIV gag peptide tetramer control was included. 25,000 events in the CD8+ gate were collected using a hierarchical gating strategy that included FSC/SSC and excluded 7AAD+ (dead) cells and CD4+CD14+CD19+CD56+ cells. Data were acquired and analyzed using Flow-Jo software.
To examine the kinetics and magnitude of T cell immunity to AAS peptides upon vaccination, peripheral blood mononuclear cells (PBMC) were collected prior to vaccination and weekly thereafter. The CD8+ T cell response to each peptide was analyzed using a HLA-A*02:01/AAS-peptide dextramer assay after a single round of in vitro stimulation. FIG. 30A illustrates kinetics of immune responses to neoantigens. Time is recorded in weeks (0 indicates pre-vaccination). Culture conditions and staining details are described infra. Antigen-specific numbers were calculated based on dextramer percentage and total live cell yields. Immunologic analysis to evaluate the kinetic and magnitude of T cell response to AAS-encoding and gp100-derived peptides was performed using PBMC collected weekly, starting before DC vaccination (Pre-vaccine in the figures) as described (Carreno, B. M., et al., J. Clin. Invest., 123, 3383-3394, 2013). Briefly, fresh PBMC obtained by Ficoll-Paque PLUS gradient centrifugation were cultured with 40 ug/mL peptide and IL-2 (50 U/mL). On day 10 (peak of response, unpublished data, labeled “Post-Vaccine” in the figures), neoantigen specific T cell frequencies were determined by staining with HLA-A*02:01/peptide dextramers (Immudex), followed by addition of FITC-CD4, -CD14, -CD19 (Invitrogen) and ALEXA® 488-CD56 (BD Pharmigen), APC-CD8 (Invitrogen). Cells were washed, resuspended in FACS buffer containing 7AAD. Twenty five thousand events in the CD8+ gate were collected using a hierarchical gating strategy that included FSC/SSC and excluded 7AAD-positive (dead cells) and CD4/14/19/56-positive cells. PBMC/CD8+ T cells derived from an unrelated HLA-A*02:01 patient were used as negative controls for assessing specificity of HLA-A*02:01/AAS-peptide dextramers (data not shown). Data were acquired and analyzed using Flow-Jo software. […] FIG. 30B illustrates the frequency of neoantigen specific T cells in CD8+ populations isolated directly from PBMC samples and after ex-vivo expansion using autologous DC and artificial antigen presenting cells. For dominant neoantigens TMEM48 F169L, SEC24A P469L and EXOC8 Q656, results are shown for samples obtained before vaccination (Pre-vaccine) and after 3 vaccine doses (Post-vaccine). For remaining neoantigens, results obtained with post-vaccine PBMC samples are shown. […]

MLGEQLFPL
Immunogenicity: Yes
frequency of neoantigen-specific CD8+ T cells: 84%
Spontaneous Immunity: No

CLNEYHLFL
Immunogenicity: Yes
frequency of neoantigen-specific CD8+ T cells: 23%
Spontaneous Immunity: Yes
pre-existing (naturally occurring) T cell immunity: could be detected in pre-vaccine PBMC samples

IILVAVPHV
frequency of neoantigen-specific CD8+ T cells: 89%
pre-existing (naturally occurring) T cell immunity: could be detected in pre-vaccine PBMC samples

KLMNIQQKL
Immunogenicity: Yes
frequency of neoantigen-specific CD8+ T cells: 47%
T cell response upon vaccination: reveal two additional ones
Spontaneous Immunity: No

QLSCISTYV
Immunogenicity: Yes
frequency of neoantigen-specific CD8+ T cells: 42%
T cell response upon vaccination: reveal two additional ones
Spontaneous Immunity: No
